These results are taken from patent publication US11806393B2, “Flavivirus peptide sequences, epitopes, and methods and uses thereof” (priority 2017, dated 2023).

What all share (type): cell-based, mouse
Test [1] has as its system CD8+ T cells. Description: IFNγ ELISPOT, ZIKV-infected Ifnar-/- HLA-B*0702 transgenic mice. The settings on record: HLA-B*0702 mice; for SFC/10^6 CD8+ T cells, MR766: 7 days after 1×10^2 FFU ZIKV MR766; for SFC/10^6 CD8+ T cells, FSS13025: 7 days after 1×10^2 FFU ZIKV FSS13025; for immunodominance in IFNγ ELISPOT: immunodominant: >500 SFCs/10^6 CD8+ T cells, shared by both ZIKV strains. As for the experimental part:
(§1) Two ZIKV strains, MR766 (Uganda, 1947) and FSS13025 (Cambodia, 2010), were obtained from the World Reference Center for Emerging Viruses and Arboviruses (WRCEVA). The mouse-adapted DENV2 strain S221 is a triple-plaque purified clone derived from DENV2 D2S1038. Both ZIKV and DENV2 were amplified in C6/36 mosquito cells, and viral titers were measured using baby hamster kidney (BHK)-21 cell-based focus forming assay (FFA). For epitope screening, 5-week old mice (female or male) were infected retro-orbitally (R.O.) with either 1×102 FFU of ZIKV FSS13025 or ZIKV MR766, or 2×10^4 FFU of DENV2 S221 in 200 μl 10% FBS/PBS. Seven days after infection, CD8^+ T cells were isolated from splenocytes and used for ELISPOT assay, while the splenocytes were directly used for ICS assay. Additionally, 5-week old mice were inoculated I.P. with 2×10^3 FFU of DENV2 S221 for 4 weeks.
(§2) CD8^+ T cells were isolated from splenocytes using magnetic bead positive selection (Miltenyi Biotec, Germany) 7 days after virus infection. 2×10^5 CD8^+ T cells were stimulated with 1×10^5 LPS-blasts loaded with 10 μg of individual peptide in 96-well flat-bottom plates (IMMOBILON™-P; Millipore, Bedford, Mass.) that were coated with anti-IFNγ mAb (clone AN18; Mabtech, Stockholm, Sweden) in triplicate. Concanavalin A (ConA) was used as positive control. After 20 hours of incubation, biotinylated anti-mouse IFNγ mAb (R4-6A2; Mabtech), followed by ABC peroxidase (Vector Laboratories, Burlingame, Calif., USA) and then 3-amino-9-ethylcarbazole (Sigma-Aldrich, St. Louis, Mo., USA) were added into the wells. […] A peptide inducing a magnitude of >500 SFCs/10^6 CD8^+ T cells was considered as an immunodominant peptide.
Two independent experiments performed in triplicate were averaged and the error bars represent the SEM. The data are expressed as the mean number of spot forming cells (SFC) per 10^6 CD8^+ T cells. The criteria for positivity were net SFC per 10^6 cells of >20, and a stimulation index of >2.0 when compared with the negative control. Dotted lines represent the cutoff value. * Indicates a positive response. […] ConA denotes Concanavalin A.

Test [2] deals with CD8+ T cells. Nature of the test: IFNγ ELISPOT, DENV2 S221-infected Ifnar-/- HLA-B*0702 transgenic mice. The settings on record: HLA-B*0702 mice, 7 days after 2×10^4 FFU DENV2 S221. As for the experimental part: as §1, §2
(§3) The following results are with respect to FIG. 14A and FIG. 14B, where Ifnar^−/− HLA-B*0702 transgenic mice were infected R.O. with 2×10^4 FFU of DENV2 strain S221 for 7 days. CD8^+ T cells isolated from splenocytes were stimulated with each of the 37 ZIKV epitopes identified via IFNγELISPOT to perform (FIG. 14A) IFNγELISPOT and (FIG. 14B) ICS assay. Data represent the average of two independent IFNγELISPOT experiments and two independent ICS experiments (n=7 mice) and are expressed as mean±SEM. Dotted line corresponds to the cutoff value. *, P<0.05.

Test [3] relates to CD8+ T cells. Description: IFNγ ICS, DENV2 S221-infected Ifnar-/- HLA-B*0702 transgenic mice. As to conditions: HLA-B*0702 mice; for % IFNγ+ CD8+ T cells, S221: 7 days after DENV2 S221, ICS; for ZIKV/DENV cross-reactivity in DENV2-infected mice (IFNγ ELISPOT and IFNγ ICS): DENV2 S221, 7 days. As for the experimental part: as §1
(§4) Spleens were harvested from virus-infected, mock-immunized, or peptide-immunized mice. 1×10^6 splenocytes were plated in each well of 96-well U-bottom plates and stimulated with individual peptide (10 μg crude peptide or 1 μg pure peptide per well) for 6 hours. Five hours before the end of incubation, Brefeldin A (GolgiPlug; BD Biosciences) and PE-conjugated anti CD107a mAb (clone 1D4B, eBioscience) were added to the cells. Splenocytes stimulated with PMA-ionomycin were used as the positive control, while cells without any stimulation were the negative control. […] Samples were run using an LSR™ II (BD Biosciences) and analyzed using FLOWJO™ software X 10.0.7 (Tree Star, Ashland, Oreg.).
as §3

Another test deals with CD3+CD8+ T cells. Description: IFNγ ICS, ZIKV-infected Ifnar-/- HLA-B*0702 transgenic mice. As to conditions: for % IFNγ+ CD8+ T cells, MR766 / % IFNγ+ CD8+ T cells, FSS13025: HLA-B*0702 mice; for % IFNγ+ CD8+ T cells, MR766: 7 days after ZIKV MR766, ICS; for % IFNγ+ CD8+ T cells, FSS13025: 7 days after ZIKV FSS13025, ICS. The protocol: as §1, §4
Data represent the average of two independent experiments and are expressed as mean±SEM. *, P<0.05; **, P<0.01; Two-tailed Mann-Whitney test. P/I denotes PMA/ionomycin.

The subject of the next test is CD44+CD62L- CD8+ T cells. Nature of the test: ICS, peptide-immunized Ifnar-/- HLA-B*0702 mice challenged with ZIKV. As to conditions: day 3 after ZIKV challenge; for percentage of IFNγ-producing cells among antigen experienced (CD44+CD62L-) CD8+ T cells: mice immunized with the 3 ZIKV immunodominant epitopes.
Text: Two HLA-B*0702-binding ZIKV-specific peptides (FSS-NS2A133-141(SEQ ID NO: 41) and FSS/MR766-NS2B68-75 (SEQ ID NO: 45)) and four ZIKV/DENV cross-reactive peptides (FSS/MR766-NS4B426-435 (SEQ ID NO: 60), FSS/MR766-NS2A75-84 (SEQ ID NO: 39), FSS/MR766-NS3206-215 (SEQ ID NO: 47), and FSS/MR766-NS3574-582 (SEQ ID NO: 52)) were chosen for synthesis. Five HLA-A*0101-binding peptides (FSS/MR-E159-167 (SEQ ID NO: 70), FSS/MR-E195-203 (SEQ ID NO: 71), FSS/MR-NS123-31 (SEQ ID NO: 74), FSS/MR-NS4B231-239 (SEQ ID NO: 77), and FSS/MR-NS5509-517 (SEQ ID NO: 79)) were chosen for synthesis. Mice (both female and male; 5-6 weeks of age) were immunized subcutaneously with a mixture of HCV helper peptide (100 μg/mouse) and 3 or 4 HLA-B*0702-binding peptides (50 μg/peptide/mouse) emulsified in Complete Freund's Adjuvant (CFA). Mock group mice received the same immunization strategy but without any ZIKV-specific or ZIKV/DENV cross-reactive peptide. On the 21st day, mice were boosted with the same peptide mixtures emulsified in Incomplete Freund's Adjuvant (IFA). […] Three days post ZIKV infection mice were sacrificed, and serum and spleen were harvested. The splenocytes were used for ICS assay. After cardiac perfusion with PBS, brain was harvested. The levels of infectious ZIKV in serum and brain were measured using FFA.
as §4
Peptide groups received corresponding peptide immunizations as described in Materials and Methods. […] CD3^+CD8^+CD44^+CD62L− T cells were gated and the percentages of IFNγ^+ and/or TNFα^+ cells in a representative mouse from mock (FIG. 12A) and peptide (FIG. 12B) groups were determined by ICS. The levels of infectious ZIKV in sera and brains were measured via FFA. Data were expressed as mean±SEM. *, P<0.05; **, P<0.01; ***, P<0.001. Two-tailed Mann-Whitney test.

Take “VPTGRTTVV (VPTGRTTW) [FSS/MR-NS5539-546]”: in the test on CD8+ T cells [1], the “SFC/10^6 CD8+ T cells, MR766” value was determined as 121 SFC/10^6 CD8+ T cells. For the same sequence, the “SFC/10^6 CD8+ T cells, S221” value in the test on CD8+ T cells [2] is recorded as 54 SFC/10^6 CD8+ T cells. Also, in the test with CD8+ T cells [3], the “% IFNγ+ CD8+ T cells, S221” value is recorded as “(0.18%)”; the “ZIKV/DENV cross-reactivity in DENV2-infected mice (IFNγ ELISPOT and IFNγ ICS)” value is “positive in both IFNγ ELISPOT and IFNγICS assays”. In addition, in the test with CD3+CD8+ T cells, the “% IFNγ+ CD8+ T cells, MR766” value was “(0.25%)”.
For the sequence SPRLDVAL [FSS/MR-NS2B68-75], in the test with CD8+ T cells [1], the “SFC/10^6 CD8+ T cells, FSS13025” value is given as 963 SFC/10^6 CD8+ T cells; the “SFC/10^6 CD8+ T cells, MR766” value is reported as 993 SFC/10^6 CD8+ T cells; the “immunodominance in IFNγ ELISPOT” value is “immunodominant”. Further, in the test on CD44+CD62L- CD8+ T cells, the “percentage of IFNγ-producing cells among antigen experienced (CD44+CD62L-) CD8+ T cells” value stood at 0.61±0.47%. Also, in the test with CD3+CD8+ T cells, the “% IFNγ+ CD8+ T cells, FSS13025” value is on record as “(0.56%)” and the “% IFNγ+ CD8+ T cells, MR766” value was “(0.77%)”. The “simultaneous IFNγ and TNFα production by peptide-stimulated CD8+ T cells” value in the test with CD3+CD8+ T cells (ZIKV MR766-infected mice) was “stimulated simultaneous production of IFNγ and TNFα”.
For RPGAFCIKVL [FSS/MR-NS4B426-435], in the test on CD8+ T cells [1], the “SFC/10^6 CD8+ T cells, FSS13025” value is on record as 1223 SFC/10^6 CD8+ T cells; the “SFC/10^6 CD8+ T cells, MR766” value is 1362 SFC/10^6 CD8+ T cells; the “immunodominance in IFNγ ELISPOT” value was “most immunodominant epitope”. Besides, in the test with CD8+ T cells [2], the “SFC/10^6 CD8+ T cells, S221” value was determined as 90 SFC/10^6 CD8+ T cells. Moreover, in the test on CD8+ T cells [3], the “% IFNγ+ CD8+ T cells, S221” value was “(0.3%)”; the “ZIKV/DENV cross-reactivity in DENV2-infected mice (IFNγ ELISPOT and IFNγ ICS)” value is “positive in both IFNγ ELISPOT and IFNγICS assays”. Also, the “percentage of IFNγ-producing cells among antigen experienced (CD44+CD62L-) CD8+ T cells” value with CD44+CD62L- CD8+ T cells is listed as 1.63±0.76%. Besides, in the test on CD44+CD62L- CD8+ T cells (mice immunized with the 4 ZIKV/DENV cross-reactive peptides), the “percentage of epitope-specific cells among antigen experienced (CD44+CD62L-) CD8+ T cells” value was determined as 1.52±0.42%. In the test with CD3+CD8+ T cells, the “% IFNγ+ CD8+ T cells, FSS13025” value is listed as “(2.28%)” and the “% IFNγ+ CD8+ T cells, MR766” value is reported as “(2.36%)”. The “simultaneous IFNγ and TNFα secretion by peptide-stimulated CD8+ T cells” value in the test with CD3+CD8+ T cells (mice infected with either ZIKV FSS13025 or ZIKV MR766) is “simultaneously secreted both IFNγ and TNFα”.
Turning to LPEIVREAI [FSS/MR-NS3188-196], in the test with CD8+ T cells [1], the “SFC/10^6 CD8+ T cells, MR766” value is 179 SFC/10^6 CD8+ T cells. Further, the “SFC/10^6 CD8+ T cells, S221” value in the test on CD8+ T cells [2] came to 63 SFC/10^6 CD8+ T cells. Further, the “% IFNγ+ CD8+ T cells, MR766” value in the test on CD3+CD8+ T cells is reported as “(0.23%)”.
With APTQGSASSL [FSS/MR-NS561-70], the “SFC/10^6 CD8+ T cells, MR766” value in the test with CD8+ T cells [1] is recorded as 98 SFC/10^6 CD8+ T cells. The “SFC/10^6 CD8+ T cells, S221” value in the test with CD8+ T cells [2] came out at 47 SFC/10^6 CD8+ T cells.
On the same counts, the results for KPTVDIEL [FSS/MR-E38-45] are 103 SFC/10^6 CD8+ T cells and 51 SFC/10^6 CD8+ T cells.
